This note sets out measurements from US8153560B2, “Pesticidal active mixtures comprising aminothiazoline compounds” (BASF SE, priority 2007, dated 2012).

Assay [1] concerns green peach aphid (Myzus persicae). Description: Test B.2: control of green peach aphid through systemic means, artificial diet under membrane. It counts as in vivo. An excerpt: For evaluating control of green peach aphid (Myzus persicae) through systemic means the test unit consisted of 96-well-microtiter plates containing liquid artificial diet under an artificial membrane.
The compounds or mixtures were formulated using a solution containing 75 wt % water and 25 wt % DMSO. Different concentrations of formulated compounds or mixtures were pipetted into the aphid diet, using a custom built pipetter, at two replications.
(§1) For experimental mixtures in these tests identical volumes of both mixing partners at the desired concentrations respectively, were mixed together.
After application, 5-8 adult aphids were placed on the artificial membrane inside the microtiter plate wells. The aphids were then allowed to suck on the treated aphid diet and incubated at 23±1° C., 50±5% RH for 3 days. Aphid mortality and fecundity was then visually assessed.

Assay [2] deals with vetch aphid (Megoura viciae). Description: Test B.1: control of vetch aphid on broad bean leaf disks, contact or systemic. Type of assay: in vivo. On the procedure: For evaluating control of vetch aphid (Megoura viciae) through contact or systemic means the test unit consisted of 24-well-microtiter plates containing broad bean leaf disks.
The compounds or mixtures were formulated using a solution containing 75 wt % water and 25 wt % DMSO. Different concentrations of formulated compounds or mixtures were sprayed onto the leaf disks at 2.5 μl, using a custom built micro atomizer, at two replications.
as §1
After application, the leaf disks were air-dried and 5-8 adult aphids placed on the leaf disks inside the microtiter plate wells. The aphids were then allowed to suck on the treated leaf disks and incubated at 23±1° C., 50±5% RH (relative humidity) for 5 days. Aphid mortality and fecundity was then visually assessed.

Where [3] appears, read: mixing partner alone, ppm 0.4 + 0, 3 days.
Where [4] appears, read: mixing partner alone, ppm 40 + 0, 3 days.
Where [5] appears, read: mixing partner alone, ppm 0.08 + 0, 5 days.
[6] abbreviates: mixing partner alone, ppm 0.08 + 0, 3 days.

With `CC1(C)C(C=C(Cl)Cl)C1C(=O)OC(C#N)c1cccc(Oc2ccccc2)c1` (stereo not drawn) [Alphacypermethrin, alpha-cypermethrin], the “Average Control %” value in assay [1] (mixing partner alone, ppm 10 + 0, 3 days) was found to be 50%.

On to `Cc1cc(C)cc(CC(NC2=NCCS2)c2cccc(C)c2C)c1` (stereo not drawn) [C.33, (4,5-Dihydro-thiazol-2-yl)-[2-(3,5-dimethyl-phenyl)-1-(2,3-dimethyl-phenyl)-ethyl]-amine], for which the “Average Control %” value in assay [2] (compound C.33 alone, ppm 0 + 0.8, 5 days) is 0%; in assay [1] (compound C.33 alone, ppm 0 + 0.8, 3 days), 0%; in assay [1] (compound C.33 alone, ppm 0 + 4, 3 days), 0%; in assay [1] (compound C.33 alone, ppm 0 + 20, 3 days), 0%; in assay [1] (compound C.33 alone, ppm 0 + 20, 3 days, listed as test compound), 50%.

Take `CNC(=O)c1cc(Cl)cc(C)c1NC(=O)c1cc(Br)nn1-c1ncccc1Cl` [Chlorantraniliprole, chlorantraniliprole]: the “Average Control %” value in assay [1] (setting [3]) is listed as 50%.

`N#Cc1nn(-c2c(Cl)cc(C(F)(F)F)cc2Cl)c(N)c1[S+]([O-])C(F)(F)F` (stereo not drawn) [Fipronil, fipronil]: the “Average Control %” value in assay [2] (mixing partner alone, ppm 2 + 0, 5 days) is 25%; in assay [1] (setting [3]), 0%.

Regarding `CC1=NNC(=O)N(/N=C/c2cccnc2)C1` [Pymetrozine, pymetrozine], the “Average Control %” value in assay [1] (setting [4]) is reported as 50%.

Consider `CC(C)(C)c1ccc(CSc2cnn(C(C)(C)C)c(=O)c2Cl)cc1` [Pyridaben, pyridaben], for which the “Average Control %” value in assay [1] (setting [4]) is 0%.

Consider `CN1COCN(Cc2cnc(Cl)s2)/C1=N\[N+](=O)[O-]` [Thiamethoxam, thiamethoxam], for which the “Average Control %” value in assay [2] (setting [5]) and in assay [1] (setting [6]) was 0% throughout.

Consider abamectin, for which the “Average Control %” value in assay [2] (setting [5]) and in assay [1] (setting [6]) was 0% throughout.
